Reference: publication PMC4014698 (Pharmaceuticals, 2014)
In brackets after ≈: the same amount, converted by molar mass. Non-standard residues stand in square brackets, D forms with d. Residues, ends and D or L forms follow the SMILES beside them.

Key:
A. baumannii strain 649 = assay: MIC, microtiter dilution; assay type: cell-based, Acinetobacter baumannii; settings: source blood; Mueller-Hinton medium, 37 °C, 24 h, 5 × 10^5 CFU/mL; three sets of determinations
From the text: (§1) All the A. baumannii strains used in this study were (1) obtained from the collection of Dr. Anthony A. Campagnari at the University of Buffalo and originally isolated from different patients and organs/tissues (strain 649, blood; strain 689, groin; strain 759, gluteus; strain 821, urine; strain 884, axilla; strain 899, perineum; strain 964, throat; strain 985, pleural fluid and strain 1012, sputum); (2) were purchased from the American Type Culture Collection (ATCC, Manassas, VA, USA) (strain ATCC 17978, fatal meningitis; and strain ATCC 19606, urine).
(§2) The minimal inhibitory concentration (MIC) is defined as the lowest peptide concentration that inhibited bacterial growth. MICs were measured by a standard microtiter dilution method in Mueller Hinton (MH) medium. Briefly, cells were grown overnight at 37 °C in MH broth and were diluted in the same medium. Serial dilutions of the peptides were added to the microtiter plates in a volume of 50 µL, followed by the addition of 50 µL of bacteria to give a final inoculum of 5 × 10^5 colony-forming units (CFU)/mL. The plates were incubated at 37 °C for 24 h, and the MICs were determined.

A. baumannii strain 759 = assay: MIC, microtiter dilution; assay type: cell-based, Acinetobacter baumannii; settings: source gluteus; Mueller-Hinton medium, 37 °C, 24 h, 5 × 10^5 CFU/mL; three sets of determinations
From the text: as §1, §2

A. baumannii strain 821 = assay: MIC, microtiter dilution; assay type: cell-based, Acinetobacter baumannii; settings: source urine; Mueller-Hinton medium, 37 °C, 24 h, 5 × 10^5 CFU/mL; three sets of determinations
From the text: as §1, §2

A. baumannii strain 884 = assay: MIC, microtiter dilution; assay type: cell-based, Acinetobacter baumannii; settings: source axilla; Mueller-Hinton medium, 37 °C, 24 h, 5 × 10^5 CFU/mL; three sets of determinations
From the text: as §1, §2

[1] = system: A. baumannii strain ATCC 19606; assay: MIC, microtiter dilution; assay type: cell-based, Acinetobacter baumannii; settings: source urine; Mueller-Hinton medium, 37 °C, 24 h, 5 × 10^5 CFU/mL; three sets of determinations
From the text: as §1, §2

A. baumannii strain 1012 = assay type: cell-based, Acinetobacter baumannii; settings: source sputum; Mueller-Hinton medium, 37 °C, 24 h, 5 × 10^5 CFU/mL; three sets of determinations
From the text: as §1, §2

A. baumannii strain 689 = assay type: cell-based, Acinetobacter baumannii; settings: source groin; Mueller-Hinton medium, 37 °C, 24 h, 5 × 10^5 CFU/mL; three sets of determinations
From the text: as §1, §2

A. baumannii strain 899 = assay type: cell-based, Acinetobacter baumannii; settings: source perineum; Mueller-Hinton medium, 37 °C, 24 h, 5 × 10^5 CFU/mL; three sets of determinations
From the text: as §1, §2

A. baumannii strain 964 = assay type: cell-based, Acinetobacter baumannii; settings: source throat; Mueller-Hinton medium, 37 °C, 24 h, 5 × 10^5 CFU/mL; three sets of determinations
From the text: as §1, §2

A. baumannii strain 985 = assay type: cell-based, Acinetobacter baumannii; settings: source pleural fluid; Mueller-Hinton medium, 37 °C, 24 h, 5 × 10^5 CFU/mL; three sets of determinations
From the text: as §1, §2

[2] = system: A. baumannii strain ATCC 17978; assay type: cell-based, Acinetobacter baumannii; settings: ATCC 17978, 24 h
From the text: as §1, §2

[3] = system: Acinetobacter baumannii (11 different isolates); assay type: cell-based; settings: geometric mean of the MIC values from 11 different isolates of A. baumannii; Table 3A
From the text: as §1, §2
Antibacterial activities against six strains of P. aeruginosa and eleven strains of A. baumannii are compared in Table 3. Geometric mean of MIC values was calculated to provide an overall view of antimicrobial activity of different analogs. It is clear that our peptides were effective in killing the microorganisms tested. Compared to a dramatic reduction in hemolytic activity, antibacterial activity of D-piscidin 1 and D-dermaseptin S4 analogs against eleven strains of A. baumannii maintained the same level (within 2-fold) upon the substitution of “specificity determinant(s)” (Table 3).

[4] = system: P. aeruginosa strain CP204; settings: source cystic fibrosis patient; Mueller-Hinton medium, 37 °C, 24 h, 5 × 10^5 CFU/mL; three sets of determinations
From the text: (§3) P. aeruginosa strains used are as follows: strain PAO1 was isolated from a human wound in 1955 in Australia; strain WR5 was isolated from a burn patient at Walter Reed Army Hospital, Washington, DC, USA, in 1976 and is a natural toxA^− mutant, but is virulent in experimental mouse models; strain PAK was originally isolated at Memorial University, St. John’s, Newfoundland, Canada, and is widely used in the analysis of pili; strain PA14 was originally isolated as a clinical isolate in 1995 at the Massachusetts General Hospital, Boston, MA, USA and is virulent in a variety of plant and animal models of infection; strain M2 was originally isolated in 1975 from the gastrointestinal tract of a healthy CF1 mouse, University of Cincinnati College of Medicine, and Shriners Burns Institute, Cincinnati, OH, USA and is virulent in a burn mouse model of P. aeruginosa infection; and strain CP204 was isolated from a cystic fibrosis patient in 1989 at the National Jewish Medical and Research Center, Denver, CO, USA. All strains have been maintained at −80 °C in the laboratory of Michael Vasil, University of Colorado, School of Medicine.
(§4) The minimal inhibitory concentration (MIC) is defined as the lowest peptide concentration that inhibited bacterial growth. MICs were measured by a standard microtiter dilution method in Mueller Hinton (MH) medium. Briefly, cells were grown overnight at 37 °C in MH broth and were diluted in the same medium. […] The plates were incubated at 37 °C for 24 h, and the MICs were determined.

P. aeruginosa strain M2 = settings: source burn mouse model; Mueller-Hinton medium, 37 °C, 24 h, 5 × 10^5 CFU/mL; three sets of determinations
From the text: as §3, §4

[5] = system: P. aeruginosa strain PA14; settings: Mueller-Hinton medium, 37 °C, 24 h, 5 × 10^5 CFU/mL; three sets of determinations
From the text: as §3, §4

P. aeruginosa strain PAK = settings: Mueller-Hinton medium, 37 °C, 24 h, 5 × 10^5 CFU/mL; three sets of determinations
From the text: as §3, §4

[6] = system: P. aeruginosa strain PAO1; settings: source human wound; Mueller-Hinton medium, 37 °C, 24 h, 5 × 10^5 CFU/mL; three sets of determinations
From the text: as §3, §4

P. aeruginosa strain WR5 = settings: source burn patient; Mueller-Hinton medium, 37 °C, 24 h, 5 × 10^5 CFU/mL; three sets of determinations
From the text: as §3, §4

[7] = system: Pseudomonas aeruginosa (6 different isolates); settings: geometric mean of the MIC values from 6 different isolates of P. aeruginosa; Table 3B
From the text: as §3, §4
Geometric mean of MIC values was calculated to provide an overall view of antimicrobial activity of different analogs.

human erythrocytes = assay: Hemolytic activity (HC50); assay type: cell-based; settings: for Hemolytic activity HC50: concentration giving 50% hemolysis after 18 h at 37 °C, 1% human erythrocytes in PBS pH 7.4, hemoglobin release at 570 nm, 100% control water (Figure 7)
Method: Hemoglobin release was determined spectrophotometrically at 570 nm.
From these plots, the HC50 values, the peptide concentration that produces 50% hemolysis of human red blood cells after 18 hours in the standard microtiter dilution method was determined.

CSCC[C@@H](NC(=O)[C@@H](Cc1c[nH]c2ccccc12)NC(=O)[C@@H](CC(C)C)NC(=O)[C@@H](C)N)C(=O)N[C@@H](C(=O)N[C@H](CC(C)C)C(=O)N[C@H](CCCCN)C(=O)N[C@H](CCCCN)C(=O)N[C@H](CCCCN)C(=O)N[C@@H](C(=O)N[C@H](CC(C)C)C(=O)N[C@H](CCCCN)C(=O)N[C@H](C)C(=O)N[C@H](CCCCN)C(=O)N[C@H](C)C(=O)N[C@H](CCCCN)C(=O)N[C@H](C)C(=O)N[C@H](CC(C)C)C(=O)N[C@H](CC(N)=O)C(=O)N[C@H](C)C(=O)N[C@@H](C(=O)N[C@H](CC(C)C)C(=O)N[C@@H](C(=O)NCC(=O)N[C@H](C)C(=O)N[C@H](CC(N)=O)C(=O)N[C@H](C)C(N)=O)C(C)C)C(C)C)C(C)C)[C@H](C)O [D-Dermaseptin S4 L7K,A14K] (H-[dA][dL][dW][dM][dT][dL][dK][dK][dK][dV][dL][dK][dA][dK][dA][dK][dA][dL][dN][dA][dV][dL][dV]G[dA][dN][dA]-NH2)
MIC 649 (A. baumannii strain 649): 0.7 µM (≈ 2 µg/mL) | MIC 759 (A. baumannii strain 759): 1.4 µM (≈ 3.99 µg/mL) | MIC 821 (A. baumannii strain 821): 0.7 µM (≈ 2 µg/mL) | MIC 884 (A. baumannii strain 884): 1.4 µM (≈ 3.99 µg/mL) | MIC ATCC19606 [1]: 0.7 µM (≈ 2 µg/mL) | MIC 1012 (A. baumannii strain 1012): 2.7 µM (≈ 7.7 µg/mL) | MIC 689 (A. baumannii strain 689): 0.7 µM (≈ 2 µg/mL) | MIC 899 (A. baumannii strain 899): 1.4 µM (≈ 3.99 µg/mL) | MIC 964 (A. baumannii strain 964): 2.7 µM (≈ 7.7 µg/mL) | MIC 985 (A. baumannii strain 985): 0.7 µM (≈ 2 µg/mL) | MIC ATCC17978 [2]: 0.7 µM (≈ 2 µg/mL) | MIC GM [3]: 1.1 µM (≈ 3.14 µg/mL) | MIC CP204 [4]: 1.4 µM (≈ 3.99 µg/mL) | MIC M2 (P. aeruginosa strain M2): 21.9 µM (≈ 62.4 µg/mL) | MIC PA14 [5]: 5.5 µM (≈ 15.7 µg/mL) | MIC PAK (P. aeruginosa strain PAK): 1.4 µM (≈ 3.99 µg/mL) | MIC PAO1 [6]: 5.5 µM (≈ 15.7 µg/mL) | MIC WR5 (P. aeruginosa strain WR5): 11.0 µM (≈ 31.4 µg/mL) | MIC GM [7]: 4.9 µM (≈ 14 µg/mL) | Hemolytic activity HC50 (human erythrocytes): 241 µM

CSCC[C@@H](NC(=O)[C@@H](Cc1c[nH]c2ccccc12)NC(=O)[C@@H](CC(C)C)NC(=O)[C@@H](C)N)C(=O)N[C@@H](C(=O)N[C@H](CC(C)C)C(=O)N[C@H](CC(C)C)C(=O)N[C@H](CCCCN)C(=O)N[C@H](CCCCN)C(=O)N[C@@H](C(=O)N[C@H](CC(C)C)C(=O)N[C@H](CCCCN)C(=O)N[C@H](C)C(=O)N[C@H](C)C(=O)N[C@H](C)C(=O)N[C@H](CCCCN)C(=O)N[C@H](C)C(=O)N[C@H](CC(C)C)C(=O)N[C@H](CC(N)=O)C(=O)N[C@H](C)C(=O)N[C@@H](C(=O)N[C@H](CC(C)C)C(=O)N[C@@H](C(=O)NCC(=O)N[C@H](C)C(=O)N[C@H](CC(N)=O)C(=O)N[C@H](C)C(N)=O)C(C)C)C(C)C)C(C)C)[C@H](C)O [D-Dermaseptin S4] (H-[dA][dL][dW][dM][dT][dL][dL][dK][dK][dV][dL][dK][dA][dA][dA][dK][dA][dL][dN][dA][dV][dL][dV]G[dA][dN][dA]-NH2)
MIC 649 (A. baumannii strain 649): 1.4 µM (≈ 3.89 µg/mL) | MIC 759 (A. baumannii strain 759): 1.4 µM (≈ 3.89 µg/mL) | MIC 821 (A. baumannii strain 821): 2.8 µM (≈ 7.78 µg/mL) | MIC 884 (A. baumannii strain 884): 2.8 µM (≈ 7.78 µg/mL) | MIC ATCC19606 [1]: 2.8 µM (≈ 7.78 µg/mL) | MIC 1012 (A. baumannii strain 1012): 2.8 µM (≈ 7.78 µg/mL) | MIC 689 (A. baumannii strain 689): 1.4 µM (≈ 3.89 µg/mL) | MIC 899 (A. baumannii strain 899): 1.4 µM (≈ 3.89 µg/mL) | MIC 964 (A. baumannii strain 964): 1.4 µM (≈ 3.89 µg/mL) | MIC 985 (A. baumannii strain 985): 0.7 µM (≈ 1.94 µg/mL) | MIC ATCC17978 [2]: 2.8 µM (≈ 7.78 µg/mL) | MIC GM [3]: 1.8 µM (≈ 5 µg/mL) | MIC CP204 [4]: 11.3 µM (≈ 31.4 µg/mL) | MIC M2 (P. aeruginosa strain M2): 11.3 µM (≈ 31.4 µg/mL) | MIC PA14 [5]: 22.5 µM (≈ 62.5 µg/mL) | MIC PAK (P. aeruginosa strain PAK): 11.3 µM (≈ 31.4 µg/mL) | MIC PAO1 [6]: 11.3 µM (≈ 31.4 µg/mL) | MIC WR5 (P. aeruginosa strain WR5): 11.3 µM (≈ 31.4 µg/mL) | MIC GM [7]: 12.6 µM (≈ 35 µg/mL) | Hemolytic activity Fold improvement in HC50 (human erythrocytes): 1.0 fold | Hemolytic activity HC50 (human erythrocytes): 0.6 µM
